Data from patent US10723711B2, “1,1,1-trifluoro-3-hydroxypropan-2-yl carbamate derivatives and 1,1,1-trifluoro-4-hydroxybutan-2-yl carbamate derivatives as MAGL inhibitors” (PFIZER INC., priority 2015, dated 2020).
Where two headings read alike, the source gives them in different places.

Tests used:
[1] = target: T1, human recombinant Monoacylglycerol Lipase (Homo sapiens, UniProt Q99685); assay: MAGL inhibition enzymatic assay, fluorogenic substrate 7-HCA, IC50 at T=0 min or after 30 minute incubation (T=30 min); format: biochemical; settings: geometric mean of 2-4 determinations unless otherwise indicated
T1 sequence (Q99685 1-303): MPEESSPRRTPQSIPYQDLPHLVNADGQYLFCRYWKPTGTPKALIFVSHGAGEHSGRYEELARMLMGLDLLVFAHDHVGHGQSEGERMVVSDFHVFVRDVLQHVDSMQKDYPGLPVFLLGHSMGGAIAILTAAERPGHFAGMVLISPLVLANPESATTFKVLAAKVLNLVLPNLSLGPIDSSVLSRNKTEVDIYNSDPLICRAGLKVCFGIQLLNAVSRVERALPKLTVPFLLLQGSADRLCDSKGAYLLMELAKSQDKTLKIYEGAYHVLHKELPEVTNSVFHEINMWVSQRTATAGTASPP
Protocol: An equal volume of 7-HCA in assay buffer with 10% DMSO was added either immediately (T=0 min) or after a 30 minute incubation (T=30 min) to initiate the reaction. […] After these dilutions, the final concentration of the test compound ranged from 3 μM to 0.03 nM. […] IC50 values were generated based on a four parameter fit model using ABASE software from IDBS.

[2] = target: T1, human recombinant Monoacylglycerol Lipase; assay: MAGL inactivation, enzyme progress curves, kinact/KI; format: biochemical; settings: from enzyme progress curves, T = 0 min protocol; geometric mean of 2-4 determinations unless otherwise indicated
Protocol: Assessment of MAGL inhibition utilizes human recombinant Monoacylglycerol Lipase and the fluorogenic substrate 7-hydroxycoumarinyl arachidonate (7-HCA, Biomol ST-502). 400 nL of a test compound at decreasing concentration (ranging from 150 μM down to 1.5 nM) was spotted into a 384-well back plate (PerkinElmer, 6007279) using a Labcyte Echo, followed by addition of 10 μL of MAGL enzyme in assay buffer (50 mM HEPES, pH 7.4, 100 mM NaCl, 5 mM MgCl2, 0.1% Triton X-100 and 25% glycerin). An equal volume of 7-HCA in assay buffer with 10% DMSO was added either immediately (T=0 min) or after a 30 minute incubation (T=30 min) to initiate the reaction. The final concentration of MAGL enzyme was […] and 7-HCA substrate was 5 μM. After these dilutions, the final concentration of the test compound ranged from 3 μM to 0.03 nM. The reaction was allowed to progress for 60 minutes, after which the plate was read at an Ex/Em of 340/465. Percent inhibitions were calculated based on control wells containing no compound (0% inhibition) and a control compound (e.g., a MAGL inhibitor whose activity is known or was previously reported in the literature, such as one with about 100% inhibition). IC50 values were generated based on a four parameter fit model using ABASE software from IDBS. See e.g., Wang, Y. et al., “A Fluorescence-Based Assay for Monoacylglycerol Lipase Compatible with Inhibitor Screening,” Assay and Drug Development Technologies, 2008, Vol. 6 (3) pp 387-393 (reporting an assay for measuring MAGL activity).
To measure MAGL inactivation, the same protocol for the (T=0 min) MAGL inhibition IC50 assay was performed with data collected every minute to acquire enzyme progress curves at decreasing concentrations of compound.

[3] = T = 0 min (substrate added immediately), read-out: MAGL (T = 0 min) IC50
[4] = T = 30 min (30 minute incubation), read-out: MAGL (T = 30 min) IC50

IC50 [1, 3] | IC50 [1, 4] | MAGL kinact/KI [2] | Compound
109 nM | 24 nM | 85270 1/s per M | O=C(O[C@H](CO)C(F)(F)F)N1CCC2(CC1)CN(S(=O)(=O)c1ccc(F)cc1)C(O)CO2 (mixture of isomers) [Example 29, (2R)-1,1,1-Trifluoro-3-hydroxypropan-2-yl 4-[(4-fluorophenyl)sulfonyl]-3-hydroxy-1-oxa-4,9-diazaspiro[5.5]undecane-9-carboxylate]
130 nM | 12 nM | 8426 1/s per M | O=C(O[C@H](CO)C(F)(F)F)N1CCC2(CC1)CC(OCc1ccccc1)CO2 (mixture of isomers) [Example 132]
166 nM | 19 nM | 5489 1/s per M | O=C(O[C@H](CO)C(F)(F)F)N1CCC2(CC1)CN(CC1CCCOC1)CCO2 (single isomer, unassigned) [Example 4]
99 nM | 17 nM | 9358 1/s per M | CC1N(S(=O)(=O)c2ccc(F)cc2)CCOC12CCN(C(=O)O[C@H](CO)C(F)(F)F)CC2 (single isomer, unassigned) [Example 71]
17 nM | 2 nM | 44421 1/s per M | CN([C@H]1COC2(CCN(C(=O)O[C@H](CO)C(F)(F)F)CC2)C1)S(=O)(=O)c1ccccc1 [Example 15, (2R)-1,1,1-trifluoro-3-hydroxypropan-2-yl (3R)-3-[methyl(phenylsulfonyl)amino]-1-oxa-8-azaspiro[4.5]decane-8-carboxylate]
357 nM | 27 nM | 1616 1/s per M | O=C(O[C@H](CO)C(F)(F)F)N1C[C@@H]2[C@H](C1)[C@H]2c1ccn(Cc2ccccn2)n1 [Example 37]
304 nM | 32 nM | 2591 1/s per M | O=C(O[C@H](CO)C(F)(F)F)N1CCC2(CC1)CN(Cc1ccc(F)cc1)CCO2 [Example 42]
> 3000 nM | 926 nM | – | O=C(O[C@H](CO)C(F)(F)F)N1C[C@@H]2CN(c3cc(C4CC4)ccn3)C[C@@H]2C1 [Example 48]
> 3000 nM | 654 nM | – | O=C(O[C@H](CO)C(F)(F)F)N1CCC2(CC1)CN(S(=O)(=O)C1CCOCC1)CCO2 [Example 49]
857 nM | 71 nM | – | O=C(O[C@H](CO)C(F)(F)F)N1CCC(CN(Cc2ccc(F)cc2)C2CCOCC2)CC1 [Example 50]
> 3000 nM | > 1680 nM | – | O=C(O[C@H](CO)C(F)(F)F)N1CCC2(CC1)CN(S(=O)(=O)CCCN1CCCC1)CCO2 [Example 54]
447 nM | 43 nM | – | O=C(O[C@H](CO)C(F)(F)F)N1CCC2(CC1)CN(S(=O)(=O)CCc1ccccn1)CCO2 [Example 55]
2340 nM | 167 nM | – | O=C(O[C@H](CO)C(F)(F)F)N1CCC2(CC1)CN(S(=O)(=O)CCCn1ccnc1)CCO2 [Example 56]
126 nM | 10 nM | 5998 1/s per M | Cc1ccc(OC2CCN(C(=O)O[C@H](CO)C(F)(F)F)CC2)nc1 [Example 57]
249 nM | 33 nM | – | Cc1cnc(OC2CCN(C(=O)O[C@H](CO)C(F)(F)F)CC2)nc1-c1ccnn1C [Example 58]
15 nM | 1 nM | 59048 1/s per M | Cc1ccc(S(=O)(=O)N2CCOC3(CCN(C(=O)O[C@H](CO)C(F)(F)F)CC3)C2)cc1Cl [Example 59]

IC50 [1, 3] | IC50 [1, 4] | MAGL kinact/KI [2] | Compound
37 nM | 2 nM | 19870 1/s per M | O=C(O[C@H](CO)C(F)(F)F)N1CCC2(CC1)CN(S(=O)(=O)c1ccc(F)c(Cl)c1)CCO2 [Example 60]
53 nM | 5 nM | 7304 1/s per M | Cc1cnc(OC2CCN(C(=O)O[C@H](CO)C(F)(F)F)CC2)c(C)c1 [Example 61]
550 nM | 42 nM | – | Cn1nccc1-c1ccnc(OC2CCN(C(=O)O[C@H](CO)C(F)(F)F)CC2)c1 [Example 64]
359 nM | 30 nM | – | Cn1nccc1-c1cccc(OC2CCN(C(=O)O[C@H](CO)C(F)(F)F)CC2)n1 [Example 65]
29 nM | 4 nM | 30591 1/s per M | O=C(O[C@H](CO)C(F)(F)F)N1CCC2(CC1)CN(S(=O)(=O)NCc1ccccc1)CCO2 [Example 67]
104 nM | 11 nM | 4621 1/s per M | COc1ccc(-n2ccc([C@H]3[C@@H]4CN(C(=O)O[C@H](CO)C(F)(F)F)C[C@@H]43)n2)cn1 [Example 69]
220 nM | 28 nM | – | O=C(O[C@H](CO)C(F)(F)F)N1CCC2(CC1)CN(Cc1ccc(F)cc1)C(=O)O2 [Example 72]
392 nM | 52 nM | – | O=C(O[C@H](CO)C(F)(F)F)N1CCC2(CC1)CN(S(=O)(=O)NCc1ccccn1)CCO2 [Example 74]
688 nM | 79 nM | – | O=C(O[C@H](CO)C(F)(F)F)N1CCC(Oc2ccc(CO)cn2)CC1 [Example 75]
658 nM | 83 nM | – | Cc1cnc(N2CCOC3(CCN(C(=O)O[C@H](CO)C(F)(F)F)CC3)C2)nc1 [Example 76]
> 2750 nM | 598 nM | – | C#Cc1ccc(-n2ccc([C@H]3[C@@H]4CN(C(=O)O[C@@H](CO)C(F)(F)F)C[C@@H]43)n2)cc1 [Example 82]
> 3000 nM | > 3000 nM | – | C[N+](C)(C)CCOP(=O)([O-])OC[C@@H](OC(=O)N1CCC2(CC1)CN(S(=O)(=O)c1ccc(F)cc1)CCO2)C(F)(F)F [Example 90]
423 nM | 50 nM | – | O=C(O[C@H](CO)C(F)(F)F)N1CCC2(CC1)CCN(C(=O)c1ccccn1)C2 [Example 128]
539 nM | 48 nM | – | CN(C(=O)c1ccccn1)[C@H]1COC2(CCN(C(=O)O[C@H](CO)C(F)(F)F)CC2)C1 [Example 146]
> 3000 nM | > 1230 nM | – | CN(C1COC2(CCN(C(=O)OC(COP(=O)(O)O)C(F)(F)F)CC2)C1)S(=O)(=O)c1ccccc1 (centres unmarked) [Example 148]

Compound | IC50 [1, 3] | IC50 [1, 4] | MAGL kinact/KI [2]
COc1ccc(-n2ccc([C@H]3[C@@H]4CN(C(=O)O[C@H](CO)C(F)(F)F)C[C@@H]43)n2)nc1 [Example 1, (2R)-1,1,1-trifluoro-3-hydroxypropan-2-yl (1α,5α,6α)-6-[1-(5-methoxypyridin-2-yl)-1H-pyrazol-3-yl]-3-azabicyclo[3.1.0]hexane-3-carboxylate] | 85 nM | 14 nM | 7806 1/s per M
COP(=O)(OC)OC[C@@H](OC(=O)N1CCC2(CC1)CN(S(=O)(=O)c1ccc(F)cc1)CCO2)C(F)(F)F [Example 86] | 97 nM | 8 nM | 132 1/s per M
CCOP(=O)(OCC)OC[C@@H](OC(=O)N1CCC2(CC1)CN(S(=O)(=O)c1ccc(F)cc1)CCO2)C(F)(F)F [Example 88] | > 3000 nM | > 3000 nM | –
